Values quoted from earlier work in PMC6625762 (Bioorganic & medicinal chemistry letters, 2019).

In the case of “NMeAla-Tle-(4S)-4-phenoxy-Pro-(R)-tetrahydronaphth-1-yl-amide”, the Kd is listed as 5 nM.
